Molecular target: recombinant human GPR52 (Homo sapiens, UniProt Q9Y2T5)
Test: HTRF cAMP assay, GPR52 activity (Example A)
Type: cell-based
Conditions: for EC50: average EC50 (n=1 to 15), Flp-In-CHO cells stably expressing recombinant human GPR52, cAMP HTRF, read-out: EC50 (N=); for Emax: maximum cAMP at 10 μM or 31.6 μM test compound, as percentage of Emax of control compound 4-(3-(3-fluoro-5-(trifluoromethyl)benzyl)-5-methyl-4,5-dihydro-1H-1,2,4-triazol-1-yl)-2-methylbenzamide
Procedure: Compounds of Formula I were assessed for their ability to modulate GPR52 activity. HTRF CAMP assays were performed using a commercially available assay kit (CAMP Gs HiRange HTRF®, CisBio). Controls and compounds were solubilized in DMSO and 62.5 nanoliters of the diluted compounds were transferred into 384-well NBS assay plates via acoustic or precision low-volume dispensing. Compounds were further diluted to 1× with the addition of 20,000 cells per well. Flp-In™—CHO cells that stably express recombinant human GPR52 were used in the assay.
Cells were harvested with cell stripper and resuspended in stimulation buffer. After thirty minutes incubation at room temperature, detection reagents were added to each well. Plates were then incubated for an additional 30 minutes at room temperature. CAMP produced by the cells during the first incubation period competes with d2-labeled CAMP for binding to an anti-cAMP monoclonal antibody labeled with europium cryptate. The measured signal was inversely proportional to the concentration of cAMP produced by the cells and this signal was quantified using a PHERAstar® multi-mode plate reader.
Dose-response curves were generated from the HTRF counts that have been transformed based on a CAMP referenced curve, and then normalized to the positive control. EC50 values were obtained using a nonlinear regression curve-fitting program. […] The Emax (Table 13) is the maximum amount of cAMP (nM) produced by incubation of the cells with 10 μM or 31.6 μM of a test compound. The compound is defined by the top plateau of the sigmoid curve fit. The curve is then normalized to a control compound, in this case 4-(3-(3-fluoro-5-(trifluoromethyl)benzyl)-5-methyl-4,5-dihydro-1H-1,2,4-triazol-1-yl)-2-methylbenzamide (Tokumaru, K., et al., “Design, synthesis, and pharmacological evaluation of 4-azolyl-benzamide derivatives as novel GPR52 agonists”, Bioorganic & Medicinal Chemistry, Volume 25, Issue 12, June 2017, pages 3098-3115), and expressed as a percentage of the Emax of that control compound.

recombinant human GPR52, sequence (Q9Y2T5 whole entry): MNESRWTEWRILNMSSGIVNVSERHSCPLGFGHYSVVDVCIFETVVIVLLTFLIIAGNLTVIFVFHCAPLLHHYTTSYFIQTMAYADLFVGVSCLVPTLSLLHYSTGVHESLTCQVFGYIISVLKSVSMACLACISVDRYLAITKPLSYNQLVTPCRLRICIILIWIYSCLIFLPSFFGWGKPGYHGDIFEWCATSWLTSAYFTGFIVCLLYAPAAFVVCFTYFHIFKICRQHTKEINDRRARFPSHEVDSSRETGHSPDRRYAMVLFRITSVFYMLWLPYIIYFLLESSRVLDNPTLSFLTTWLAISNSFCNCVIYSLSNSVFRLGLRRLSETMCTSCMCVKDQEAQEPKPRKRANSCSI

Structure (SMILES) | EC50 | Emax
Cc1cc(-c2cc(Oc3ccc4c(c3)CCO4)ccn2)ccc1C(N)=O [Example 67, 4-(4-((2,3-dihydrobenzofuran-5-yl)oxy)pyridin-2-yl)-2-methylbenzamide] | 101 to 1000 nM | 129%
CCc1cc(-c2cc(Oc3ccc4c(c3)NCCO4)ccn2)ccc1C(N)=O [Example 68, 4-(4-((3,4-dihydro-2H-benzo[b][1,4]oxazin-6-yl)oxy)pyridin-2-yl)-2-ethylbenzamide] | < 25 nM | 131%
Cc1cc(-c2cc(Oc3ccc4c(c3)NCCO4)ccn2)ccc1C(N)=O [Example 69, 4-(4-((3,4-dihydro-2H-benzo[b][1,4]oxazin-6-yl)oxy)pyridin-2-yl)-2-methylbenzamide] | < 25 nM | 119%
CCc1cc(-c2cc(Oc3ccc4ncccc4c3)ccn2)ccc1C(N)=O [Example 70, 2-ethyl-4-(4-(quinolin-6-yloxy)pyridin-2-yl)benzamide] | 101 to 1000 nM | 126%
CCc1cc(-c2cc(Oc3ccc4cnccc4c3)ccn2)ccc1C(N)=O [Example 71, 2-ethyl-4-(4-(isoquinolin-6-yloxy)pyridin-2-yl)benzamide] | 25 to 100 nM | 107%
CCc1cc(-c2cc(Oc3cc(F)c4cnn(C)c4c3)cc3nccn23)ccc1C(N)=O [Example 72, 2-ethyl-4-(7-((4-fluoro-1-methyl-1H-indazol-6-yl)oxy)imidazo[1,2-a]pyridin-5-yl)benzamide] | 25 to 100 nM | 69%
CCc1cc(-c2cc(Oc3ccc4ccncc4c3)ccn2)ccc1C(N)=O [Example 73, 2-ethyl-4-(4-(162yridine162ine-7-yloxy)162yridine-2-yl)benzamide] | 101 to 1000 nM | 66%
Cc1cc(-c2cc(Oc3ccc4ncccc4c3)ccn2)ccc1C(N)=O [Example 74, 2-methyl-4-(4-(quinolin-6-yloxy)pyridin-2-yl)benzamide] | 101 to 1000 nM | 95%
NC(=O)c1ccc(-c2cc(Oc3ccc4ncccc4c3)ccn2)cc1C(F)(F)F [Example 75, 4-(4-(quinolin-6-yloxy)pyridin-2-yl)-2-(trifluoromethyl)benzamide] | 101 to 1000 nM | 101%
NC(=O)c1ccc(-c2cc(Oc3ccc4ncccc4c3)ccn2)cc1Cl [Example 76, 2-chloro-4-(4-(quinolin-6-yloxy)pyridin-2-yl)benzamide] | 101 to 1000 nM | 91%
CCc1cc(-c2cc(Oc3cnc4c(c3)c(C(F)(F)F)nn4C)cc3nccn23)ccc1C(N)=O [Example 77, 2-ethyl-4-(7-((1-methyl-3-(trifluoromethyl)-1H-pyrazolo[3,4-b]pyridin-5-yl)oxy)imidazo[1,2-a]pyridin-5-yl)benzamide] | 101 to 1000 nM | 75%
CCc1cc(-c2cc(Oc3cnc4c(c3)c(C)nn4C)cc3nccn23)ccc1C(N)=O [Example 78, 4-(7-((1,3-dimethyl-1H-pyrazolo[3,4-b]pyridin-5-yl)oxy)imidazo[1,2-a]pyridin-5-yl)-2-ethylbenzamide] | 101 to 1000 nM | 94%
Cc1cc(-c2cc(Oc3ccc4ccncc4c3)ccn2)ccc1C(N)=O [Example 79, 4-(4-(isoquinolin-7-yloxy)pyridin-2-yl)-2-methylbenzamide] | 101 to 1000 nM | 60%
NC(=O)c1ccc(-c2cc(Oc3ccc4ccncc4c3)ccn2)cc1Cl [Example 80, 2-chloro-4-(4-(isoquinolin-7-yloxy)pyridin-2-yl)benzamide] | 101 to 1000 nM | 54%
CCc1cc(-c2cc(Oc3cnc4c(C)nn(C)c4c3)cc3nccn23)ccc1C(N)=O [Example 81, 4-(7-((1,3-dimethyl-1H-pyrazolo[4,3-b]pyridin-6-yl)oxy)imidazo[1,2-a]pyridin-5-yl)-2-ethylbenzamide] | 101 to 1000 nM | 76%
NC(=O)c1ccc(-c2cc(Oc3ccc4cnccc4c3)ccn2)cc1Cl [Example 82, 2-chloro-4-(4-(isoquinolin-6-yloxy)pyridin-2-yl)benzamide] | 101 to 1000 nM | 110%
Cc1cc(-c2cc(Oc3ccc4occc4c3)ccn2)ccc1C(N)=O [Example 83, 4-(4-(benzofuran-5-yloxy)pyridin-2-yl)-2-methylbenzamide] | 101 to 1000 nM | 153%
Cc1cc(-c2cc(Oc3ccc4c(c3)CCC4=O)ccn2)ccc1C(N)=O [Example 84, 2-methyl-4-(4-((1-oxo-2,3-dihydro-1H-inden-5-yl)oxy)pyridin-2-yl)benzamide] | 101 to 1000 nM | 123%

Structure (SMILES) | EC50 | Emax
Cc1cc(-c2cc(Oc3ccc4c(c3)OCO4)ccn2)ccc1C(N)=O [Example 85, 4-(4-(benzo[d][1,3]dioxol-5-yloxy)pyridin-2-yl)-2-methylbenzamide] | 101 to 1000 nM | 106%
Cc1nc2cc(Oc3ccnc(-c4ccc(C(N)=O)c(C)c4)c3)ccc2s1 [Example 86, 2-methyl-4-(4-((2-methylbenzo[d]thiazol-5-yl)oxy)pyridin-2-yl)benzamide] | 101 to 1000 nM | 86%
Cc1cc(-c2cc(Oc3ccc4ccoc4c3)ccn2)ccc1C(N)=O [Example 87, 4-(4-(benzofuran-6-yloxy)pyridin-2-yl)-2-methylbenzamide] | 101 to 1000 nM | 68%
Cc1cc(-c2cc(Oc3ccc4cccnc4c3)ccn2)ccc1C(N)=O [Example 88, 2-methyl-4-(4-(quinolin-7-yloxy)pyridin-2-yl)benzamide] | 101 to 1000 nM | 67%
Cc1cc(-c2cc(Oc3ccc4c(c3)OC(F)(F)O4)ccn2)ccc1C(N)=O [Example 89, 4-(4-((2,2-difluorobenzo[d][1,3]dioxol-5-yl)oxy)pyridin-2-yl)-2-methylbenzamide] | 101 to 1000 nM | 95%
Cc1cc(-c2cc(Oc3cccc4occc34)ccn2)ccc1C(N)=O [Example 90, 4-(4-(benzofuran-4-yloxy)pyridin-2-yl)-2-methylbenzamide] | 1000 to 2000 nM | 107%
Cc1cc(-c2cc(Oc3ccc4cnccc4c3)ccn2)ccc1C(N)=O [Example 93, 4-(4-(isoquinolin-6-yloxy)pyridin-2-yl)-2-methylbenzamide] | 101 to 1000 nM | 118%
Cc1cc(-c2cc(Oc3ccc4cnn(C)c4c3)cc(CN)n2)ccc1C(N)=O [Example 94, 4-(6-(aminomethyl)-4-((1-methyl-1H-indazol-6-yl)oxy)pyridin-2-yl)-2-methylbenzamide] | 101 to 1000 nM | 129%
CCc1cc(-c2cc(Oc3ccc4ncc(F)cc4c3)ccn2)ccc1C(N)=O [Example 95, 2-ethyl-4-(4-((3-fluoroquinolin-6-yl)oxy)pyridin-2-yl)benzamide] | 101 to 1000 nM | 138%
Cc1cc(-c2cc(Oc3ccc4ncc(F)cc4c3)ccn2)ccc1C(N)=O [Example 96, 4-(4-((3-fluoroquinolin-6-yl)oxy)pyridin-2-yl)-2-methylbenzamide] | 101 to 1000 nM | 120%
CCc1cc(-c2cc(Oc3cc(F)c4ncccc4c3)ccn2)ccc1C(N)=O [Example 97, 2-ethyl-4-(4-((8-fluoroquinolin-6-yl)oxy)pyridin-2-yl)benzamide] | 101 to 1000 nM | 132%
Cc1cc(-c2cc(Oc3cc(F)c4ncccc4c3)ccn2)ccc1C(N)=O [Example 98, 4-(4-((8-fluoroquinolin-6-yl)oxy)pyridin-2-yl)-2-methylbenzamide] | 101 to 1000 nM | 120%
Cc1cc(-c2cc(Oc3ccc4ncc(Cl)cc4c3)ccn2)ccc1C(N)=O [Example 99, 4-(4-((3-chloroquinolin-6-yl)oxy)pyridin-2-yl)-2-methylbenzamide] | 101 to 1000 nM | 138%
Cc1cc(-c2cc(Oc3cc(Cl)c4ncccc4c3)ccn2)ccc1C(N)=O [Example 100, 4-(4-((8-chloroquinolin-6-yl)oxy)pyridin-2-yl)-2-methylbenzamide] | 101 to 1000 nM | 112%
CCc1cc(-c2cc(Oc3cnc4cc(F)ccc4c3)ccn2)ccc1C(N)=O [Example 101, 2-ethyl-4-(4-((7-fluoroquinolin-3-yl)oxy)pyridin-2-yl)benzamide] | 101 to 1000 nM | 80%
CCc1cc(-c2cc(Oc3cnc4c(F)cccc4c3)ccn2)ccc1C(N)=O [Example 102, 2-ethyl-4-(4-((8-fluoroquinolin-3-yl)oxy)pyridin-2-yl)benzamide] | 101 to 1000 nM | 90%
Cc1cc(-c2cc(Oc3cnc4c(F)cccc4c3)ccn2)ccc1C(N)=O [Example 103, 4-(4-((8-fluoroquinolin-3-yl)oxy)pyridin-2-yl)-2-methylbenzamide] | 101 to 1000 nM | 60%

From patent US20260167615A1, “COMPOUNDS AND COMPOSITIONS AS GPR52 MODULATORS” (Neurocrine Biosciences, Inc., priority 2022, published 2026)
